Reference: ChEMBL document CHEMBL5214882, “Targeting Atg4B for cancer therapy: Chemical mediators” (Eur J Med Chem, 2021)

What was measured:
Cysteine protease ATG4B = target: T1, Cysteine protease ATG4B (Homo sapiens, UniProt Q9Y4P1); experiment: Inhibition of ATG4B (unknown origin) using proLC3B as substrate by FRET-LC3 assay
T1 sequence (Q9Y4P1 whole entry): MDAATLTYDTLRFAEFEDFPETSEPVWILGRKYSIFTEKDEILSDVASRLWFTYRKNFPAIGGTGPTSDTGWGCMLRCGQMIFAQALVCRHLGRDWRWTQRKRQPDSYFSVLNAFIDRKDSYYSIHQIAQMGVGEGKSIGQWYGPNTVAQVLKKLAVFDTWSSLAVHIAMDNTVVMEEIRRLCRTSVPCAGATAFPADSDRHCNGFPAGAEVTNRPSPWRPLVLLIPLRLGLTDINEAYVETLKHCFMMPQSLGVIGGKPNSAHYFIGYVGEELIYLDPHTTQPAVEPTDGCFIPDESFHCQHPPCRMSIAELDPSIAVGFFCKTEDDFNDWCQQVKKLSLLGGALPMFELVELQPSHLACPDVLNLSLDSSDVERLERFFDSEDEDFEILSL

HCT-116 = experiment: Antitumor activity against human HCT-116 cells […] in mouse assessed as tumor growth inhibition at 50 mg/kg,sc administered for 5 weeks by 3 times a week; type: functional; conditions: HCT-116, 840 h

Row | Structure (SMILES) | IC50 (Cysteine protease ATG4B) | inhibition in vivo at 50 mg/kg (HCT-116)
1 | O=C(N[C@@H](Cc1ccccc1)C(=O)CCl)OCc1ccccc1 | 3.3 µM | –
2 | Cc1cc(O)c2c(=O)c3c(O)cc(O)c4c5c(O)cc(O)c6c(=O)c7c(O)cc(C)c8c1c2c(c34)c(c78)c65 [HYPERICIN] | 8.9 µM | –
3 | COc1ccc(Nc2cc(C)nc(Nc3ccc(-c4cc5ccccc5o4)cc3)n2)cc1 | – | 75%
